The results in this text go back to publication PMC12461607, “Profiling polyamine–protein interactions in live cells through photoaffinity labeling” (RSC Chemical Biology, 2025).

Structures are written as SMILES.

This experiment has as its target T1, TUBA1C (Homo sapiens, UniProt Q9BQE3).
T1 construct: endogenous protein in live HeLa cells, no tag; modified C-terminal peptides 423-449 and 431-449
Put plainly: live-cell photoaffinity labelling, biotin enrichment, TMT LC-MS/MS. In kind it is cell-based. The note with it: covalent after UV 365 nm; live HeLa cells; C-terminal acidic region.

T1 sequence (Q9BQE3 whole entry): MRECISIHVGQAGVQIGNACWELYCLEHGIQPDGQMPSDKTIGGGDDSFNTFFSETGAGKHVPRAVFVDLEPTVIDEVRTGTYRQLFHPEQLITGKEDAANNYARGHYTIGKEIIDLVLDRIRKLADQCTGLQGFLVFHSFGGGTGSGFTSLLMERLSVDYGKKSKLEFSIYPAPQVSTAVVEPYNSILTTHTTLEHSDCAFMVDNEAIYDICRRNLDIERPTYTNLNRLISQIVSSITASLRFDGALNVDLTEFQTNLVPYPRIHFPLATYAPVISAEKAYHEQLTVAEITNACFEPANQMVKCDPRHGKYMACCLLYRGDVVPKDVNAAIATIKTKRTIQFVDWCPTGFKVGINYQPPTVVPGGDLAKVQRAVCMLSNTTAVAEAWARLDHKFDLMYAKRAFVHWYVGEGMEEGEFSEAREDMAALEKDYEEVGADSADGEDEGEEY

Regarding `C#CCCC1(CCNCCCCNCCCN)N=N1` [compound 4, spermidine analog 4], the “live-cell photoaffinity labelling, biotin enrichment, TMT LC-MS/MS” value is listed as “several tubulins (including TUBA1C)”.

For the compound `C#CCCC1(CCNCCCNCCCCN)N=N1` [compound 5, spermidine analog 5], the “live-cell photoaffinity labelling, biotin enrichment, TMT LC-MS/MS” value is listed as “several tubulins (including TUBA1C)”.
